Assay results: the supplement of paper PMC10307832

What was measured:
Assay in all cases: relative viability (nuclei count vs DMSO), 5 days (fraction); higher = more cells survive
[1] = compound: CCOC1=CC=CC=C1N=NC2=C(NN(C2=O)C3=NC(=CS3)C4=CC=CC=C4)C [BAM7] + C[C@]1(O)C[C@@H](c2nc(-c3ccc4ccc(-c5ccccc5)nc4c3)c3c(N)nccn32)C1 [Linsitinib] (partner 1 µM)
Summary of the method: (§1)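 Five library-drug doses in √10 steps were combined with a fixed anchor-drug dose, or a single drug was given alone, by pin tool to lung cancer cell lines in 1536-well plates the day after seeding. Nuclei were stained and counted after 5 days. Relative viability is the nuclei count in treated wells over that in vehicle wells, taken as the median of duplicate plates.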

[2] = compound: CCOC1=CC=CC=C1N=NC2=C(NN(C2=O)C3=NC(=CS3)C4=CC=CC=C4)C [BAM7] + COc1cccc2cc(-c3nc([C@H]4CC[C@H](C(=O)O)CC4)n4ncnc(N)c34)[nH]c12 [OSI-027] (partner 0.5 µM)
Summary of the method: as §1

[3] = compound: CCOC1=CC=CC=C1N=NC2=C(NN(C2=O)C3=NC(=CS3)C4=CC=CC=C4)C [BAM7] + CS(=O)(=O)N1CCN(Cc2cc3nc(-c4cccc5[nH]ncc45)nc(N4CCOCC4)c3s2)CC1 [Pictilisib] (partner 1 µM)
Summary of the method: as §1

[4] = compound: CCOC1=CC=CC=C1N=NC2=C(NN(C2=O)C3=NC(=CS3)C4=CC=CC=C4)C [BAM7] + C[C@@H](Oc1cc(-c2cnn(C3CCNCC3)c2)cnc1N)c1c(Cl)ccc(F)c1Cl [Crizotinib] (partner 1 µM)
Summary of the method: as §1

[5] = compound: CCOC1=CC=CC=C1N=NC2=C(NN(C2=O)C3=NC(=CS3)C4=CC=CC=C4)C [BAM7] + Cc1cc(Nc2cc(N3CCN(C)CC3)nc(Sc3ccc(NC(=O)C4CC4)cc3)n2)n[nH]1 [Tozasertib] (partner 0.1 µM)
Summary of the method: as §1

| Cell Line | relative viability ([1]; first compound 0.5 µM) | relative viability ([1]; first compound 5 µM) | relative viability ([1]; first compound 15.81 µM) | relative viability ([1]; first compound 50 µM) | relative viability ([2]; first compound 0.5 µM) | relative viability ([2]; first compound 5 µM) | relative viability ([2]; first compound 15.81 µM) | relative viability ([2]; first compound 50 µM) | relative viability ([3]; first compound 0.5 µM) | relative viability ([3]; first compound 5 µM) | relative viability ([3]; first compound 15.81 µM) | relative viability ([3]; first compound 50 µM) | relative viability ([4]; first compound 0.5 µM) | relative viability ([4]; first compound 5 µM) | relative viability ([4]; first compound 15.81 µM) | relative viability ([4]; first compound 50 µM) | relative viability ([5]; first compound 0.5 µM) | relative viability ([5]; first compound 5 µM) | relative viability ([5]; first compound 15.81 µM) | relative viability ([5]; first compound 50 µM) |
| --- | --- | --- | --- | --- | --- | --- | --- | --- | --- | --- | --- | --- | --- | --- | --- | --- | --- | --- | --- | --- |
| NCI-H2126 | 0.7 | 0.63 | 0.706 | 0.704 | 0.662 | 0.733 | 0.736 | 0.641 | 0.514 | 0.448 | 0.507 | 0.479 | 0.969 | 0.88 | 0.832 | 0.87 | 0.836 | 0.679 | 0.643 | 0.74 |
| NCI-H2228 | 0.674 | 0.789 | 0.554 | 0.842 | 0.716 | 0.545 | 0.593 | 0.594 | 0.407 | 0.429 | 0.34 | 0.429 | 0.657 | 0.426 | 0.349 | 0.641 | 0.239 | 0.23 | 0.208 | 0.286 |
| NCI-H2347 | 0.983 | 1.18 | 0.971 | 0.982 | 0.478 | 0.446 |  | 0.4 | 0.639 | 0.746 | 0.598 | 0.913 | 0.738 | 0.995 | 0.674 | 0.745 | 0.75 | 0.426 |  | 0.525 |
| NCI-H2405 | 1.02 | 0.881 | 0.865 | 1.09 | 0.623 | 0.686 | 0.608 | 0.683 | 0.438 | 0.557 | 0.449 | 0.538 | 0.896 | 0.965 | 0.796 | 0.805 | 0.721 | 0.809 | 0.73 | 0.721 |
| NCI-H3122 | 0.969 | 1.08 | 1 | 1.02 | 1.03 | 1.11 | 1.01 | 1.28 | 0.75 | 0.689 | 0.685 | 0.694 | 0.282 | 0.378 | 0.33 | 0.312 | 0.44 | 0.387 | 0.351 | 0.324 |
| PC-3 [JPC-3] | 0.905 | 0.966 | 0.868 | 0.835 | 0.668 | 0.698 | 0.698 | 0.668 | 0.693 | 0.736 | 0.612 | 0.631 | 0.913 | 0.942 | 0.784 | 0.827 | 0.776 | 0.7 | 0.72 | 0.735 |
| PC-14 | 0.984 | 1.04 | 0.953 | 0.975 | 0.872 | 0.898 | 0.764 | 0.926 | 0.775 | 1.02 | 0.598 | 0.656 | 1.07 | 0.99 | 0.805 | 0.859 | 0.58 | 0.595 | 0.591 | 0.557 |
| RERF-LC-KJ | 0.862 | 0.775 | 0.833 | 0.929 | 0.472 | 0.422 | 0.334 | 0.404 | 0.551 | 0.496 | 0.492 | 0.515 | 0.834 | 0.786 | 0.78 | 0.793 | 0.413 | 0.264 | 0.231 | 0.249 |
| SK-LU-1 | 0.969 | 1.21 | 1.22 | 1.21 | 0.33 | 0.362 | 0.345 | 0.343 | 0.502 | 0.658 | 0.678 | 0.737 | 0.785 | 1.05 | 0.903 | 0.866 | 0.332 | 0.449 | 0.341 | 0.323 |
| SK-MES-1 | 1.11 | 1.05 | 1.03 | 1.07 | 0.573 | 0.549 | 0.545 | 0.663 | 0.432 | 0.455 | 0.369 | 0.358 | 1.05 | 1.01 | 0.961 | 1.04 | 1.03 | 0.907 | 0.752 | 0.772 |
| SW 1573 | 0.838 | 0.742 | 0.819 | 0.896 | 0.753 | 0.708 | 0.591 | 0.711 | 0.583 | 0.48 | 0.457 | 0.483 | 0.974 | 0.962 | 0.778 | 0.8 | 0.213 | 0.174 | 0.165 | 0.191 |
